Experimental data: patent publication US6479435B1, “Diaryl ethers and processes for their preparation and herbicidal and desiccant compositions containing them” (ISK Americas Incorporated, priority 1997, dated 2002)

Legend:
Type in all cases: in vivo
[1] = test system: Johnsongrass (Sorghum halepense, SORHA); assay: Pre-emerge greenhouse herbicide test, phytotoxicity rating; details: 14 days after application, rating scale 0-100
In short: (§1)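 Seeds sown in sandy loam mix one day before track-sprayer application of compounds in acetone at 125–1000 g ai/ha (187 l/ha), then surface-watered to incorporate and bottom-watered. Visual rating 14 days after application on a 0–100 scale (0 = no damage, 100 = all plants dead).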

[2] = test system: barnyardgrass (Echinochloa crusgalli, ECHCG); assay: as above; details: 14 days after application, rating scale 0-100
In short: as §1

[3] = test system: common ragweed (Ambrosia artemisiifolia L., AMBEL); assay: as above; details: 14 days after application, rating scale 0-100
In short: as §1

[4] = test system: green foxtail (Setaria viridis, SETVI); assay: as above; details: 14 days after application, rating scale 0-100
In short: as §1

[5] = test system: ivyleaf morningglory (Ipomoea hederacea, IPOHE); assay: as above; details: 14 days after application, rating scale 0-100
In short: as §1

[6] = test system: lambsquarters (Chenopodium album, CHEAL); assay: as above; details: 14 days after application, rating scale 0-100
In short: as §1

[7] = test system: large crabgrass (Digitaria sanguinalis, DIGSA); assay: as above; details: 14 days after application, rating scale 0-100
In short: as §1

[8] = test system: redroot pigweed (Amaranthus retroflexus, AMARE); assay: as above; details: 14 days after application, rating scale 0-100
In short: as §1

[9] = test system: sicklepod (Cassia obtusifolia, CASOB); assay: as above; details: 14 days after application, rating scale 0-100
In short: as §1

[10] = test system: velvetleaf (Abutilon theophrasti, ABUTH); assay: as above; details: 14 days after application, rating scale 0-100
In short: as §1

[11] = test system: field corn (Zea mays L., var. Dekalb 535, CORN); assay: Pre-emerge greenhouse test, crop damage rating; details: 14 days after application, rating scale 0-100
In short: as §1

[12] = test system: upland rice (Oryza sp., var.Tebonnet, RICE); assay: Pre-emerge greenhouse test, crop damage rating; details: 125 g ai/ha, 14 days after application, rating scale 0-100
In short: as §1

[13] = test system: soybean (Glycine max L., var. Pella 86, SOY); assay: Pre-emerge greenhouse test, crop damage rating; details: 14 days after application, rating scale 0-100
In short: as §1

[14] = test system: common ragweed (Ambrosia artemisiifolia L., AMBEL); assay: Post-emerge greenhouse herbicide test, phytotoxicity rating; details: 14 days after application
In short: (§2)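 Compounds in acetone with 0.25% v/v non-ionic surfactant were track-sprayed at 187 l/ha over plants at the 2-3 leaf stage, at 63 to 1000 g ai/ha. Pots were bottom-watered. Injury was scored visually 14 days later on a 0-100 scale, where 0 is no damage and 100 is complete plant death.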

[15] = test system: Johnsongrass (Sorghum halepense, SORHA); assay: as above; details: 14 days after application
In short: as §2

[16] = test system: barnyardgrass (Echinochloa crusgalli, ECHCG); assay: as above; details: 14 days after application
In short: as §2

[17] = test system: green foxtail (Setaria viridis, SETVI); assay: as above; details: 14 days after application
In short: as §2

[18] = test system: ivyleaf morningglory (Ipomoea hederacea, IPOHE); assay: as above; details: 14 days after application
In short: as §2

[19] = test system: lambsquarters (Chenopodium album, CHEAL); assay: as above; details: 14 days after application
In short: as §2

[20] = test system: large crabgrass (Digitaria sanguinalis, DIGSA); assay: as above; details: 63 g al/ha, 14 days after application
In short: as §2

[21] = test system: redroot pigweed (Amaranthus retroflexus, AMARE); assay: as above; details: 14 days after application
In short: as §2

[22] = test system: velvetleaf (Abutilon theophrasti, ABUTH); assay: as above; details: 14 days after application
In short: as §2

[23] = test system: field corn (Zea mays L., var. Dekalb 535, CORN); assay: Post-emerge greenhouse test, crop damage rating; details: 14 days after application
In short: as §2

[24] = test system: soybean (Glycine max L., var. Pella 86, SOY); assay: Post-emerge greenhouse test, crop damage rating; details: 14 days after application
In short: as §2

Compound: Cn1nc(-c2cc(Oc3nc(F)c(F)cc3F)c(Cl)cc2F)c(Cl)c1C(F)(F)F [Compound 1-6]
- phytotoxicity rating SORHA ([1]; 125 g ai/ha): 0
- phytotoxicity rating SORHA ([1]; 500 g ai/ha): 90
- phytotoxicity rating ECHCG ([2]; 125 g ai/ha): 30
- phytotoxicity rating ECHCG ([2]; 500 g ai/ha): 70
- phytotoxicity rating AMBEL ([3]; 125 g ai/ha): 100
- phytotoxicity rating AMBEL ([3]; 500 g ai/ha): 99
- phytotoxicity rating SETVI ([4]; 125 g ai/ha): 60
- phytotoxicity rating SETVI ([4]; 500 g ai/ha): 30
- phytotoxicity rating IPOHE ([5]; 125 g ai/ha): 30
- phytotoxicity rating IPOHE ([5]; 500 g ai/ha): 99
- phytotoxicity rating CHEAL ([6]; 125 g ai/ha): 40
- phytotoxicity rating CHEAL ([6]; 500 g ai/ha): 100
- phytotoxicity rating DIGSA ([7]; 125 g ai/ha): 20
- phytotoxicity rating DIGSA ([7]; 500 g ai/ha): 10
- phytotoxicity rating AMARE ([8]; 125 g ai/ha): 95
- phytotoxicity rating AMARE ([8]; 500 g ai/ha): 99
- phytotoxicity rating CASOB ([9]; 125 g ai/ha): 0
- phytotoxicity rating CASOB ([9]; 500 g ai/ha): 0
- phytotoxicity rating ABUTH ([10]; 125 g ai/ha): 50
- phytotoxicity rating ABUTH ([10]; 500 g ai/ha): 80
- crop damage rating CORN ([11]; 125 g ai/ha): 0
- crop damage rating CORN ([11]; 500 g ai/ha): 0
- crop damage rating RICE [12]: 0
- crop damage rating SOY ([13]; 125 g ai/ha): 0
- crop damage rating SOY ([13]; 500 g ai/ha): 0
- AMBEL phytotoxicity rating (0-100) ([14]; 63 g al/ha): 0
- AMBEL phytotoxicity rating (0-100) ([14]; 500 g al/ha): 90
- SORHA phytotoxicity rating (0-100) ([15]; 63 g al/ha): 30
- SORHA phytotoxicity rating (0-100) ([15]; 500 g al/ha): 70
- ECHCG phytotoxicity rating (0-100) ([16]; 63 g al/ha): 20
- ECHCG phytotoxicity rating (0-100) ([16]; 500 g al/ha): 70
- SETVI phytotoxicity rating (0-100) ([17]; 63 g al/ha): 20
- SETVI phytotoxicity rating (0-100) ([17]; 500 g al/ha): 60
- IPOHE phytotoxicity rating (0-100) ([18]; 63 g al/ha): 50
- IPOHE phytotoxicity rating (0-100) ([18]; 500 g al/ha): 100
- CHEAL phytotoxicity rating (0-100) ([19]; 63 g al/ha): 30
- CHEAL phytotoxicity rating (0-100) ([19]; 500 g al/ha): 100
- DIGSA phytotoxicity rating (0-100) [20]: 0
- AMARE phytotoxicity rating (0-100) ([21]; 63 g al/ha): 99
- AMARE phytotoxicity rating (0-100) ([21]; 500 g al/ha): 100
- ABUTH phytotoxicity rating (0-100) ([22]; 63 g al/ha): 50
- ABUTH phytotoxicity rating (0-100) ([22]; 500 g al/ha): 100
- CORN crop damage rating (0-100) ([23]; 63 g al/ha): 10
- CORN crop damage rating (0-100) ([23]; 500 g al/ha): 10
- SOY crop damage rating (0-100) ([24]; 63 g al/ha): 30
- SOY crop damage rating (0-100) ([24]; 500 g al/ha): 50
